Assay results as given in patent US20220396565A1 (Hoffmann-La Roche Inc., priority 2020, published 2022).
Structures can show the parent of a compound that is named as a salt.

system: Acinetobacter baumannii ATCC17961; experiment: Antimicrobial susceptibility testing: 90% growth inhibitory concentration (IC90) determination, Iso-Sensitest broth; format: cell-based; details: Acinetobacter baumannii, ATCC17961, 90% growth inhibitory concentration, Acinetobacter baumannii ATCC17961, Iso-Sensitest broth; read-out: ATCC 17961 IC90
How it was run: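 Growth at OD600 was monitored every 20 min for 16 h at 35±2 °C, with bacteria inoculated at ~5×10^(5) CFU/ml into Iso-Sensitest medium. Compounds were tested as 10-point twofold dilutions (e.g. 10–0.02 μM final). The 90% inhibitory concentration comes from the log-phase growth.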

| SMILES | IC90 |
| --- | --- |
| COc1ccc(-c2cnc(C(=O)Nc3ccc(C(=O)N4CCN(C(=O)CC5NC(=O)NC5=O)CC4)c(Cl)c3)n2C)c(F)c1F (stereo not shown) [Example 128, N-[3-chloro-4-[4-[2-(2,5-dioxoimidazolidin-4-yl)acetyl]piperazine-1-carbonyl]phenyl]-5-(2,3-difluoro-4-methoxy-phenyl)-1-methyl-imidazole-2-carboxamide] | 270 nM |
| COc1ccc(-c2cnc(C(=O)Nc3ccc(C(=O)N4CCN(C(=O)CC5CNC(=O)C5)CC4)c(Cl)c3)n2C)c(F)c1F (stereo not shown) [Example 129, N-[3-chloro-4-[4-[2-(5-oxopyrrolidin-3-yl)acetyl]piperazine-1-carbonyl]phenyl]-5-(2,3-difluoro-4-methoxy-phenyl)-1-methyl-imidazole-2-carboxamide] | 40 nM |
| COc1ccc(-c2cnc(C(=O)Nc3ccc(C(=O)N4CCN(C(=O)CCCC[C@@H]5SC[C@@H]6NC(=O)N[C@@H]65)CC4)c(Cl)c3)n2C)c(F)c1F [Example 130, N-[4-[4-[5-[(3aS,4S,6aR)-2-oxo-1,3,3a,4,6,6a-hexahydrothieno[3,4-d]imidazol-4-yl]pentanoyl]piperazine-1-carbonyl]-3-chloro-phenyl]-5-(2,3-difluoro-4-methoxy-phenyl)-1-methyl-imidazole-2-carboxamide] | 260 nM |
| COc1ccc(-c2cnc(C(=O)Nc3ccc(C(=O)N4CCN(C(=O)CCOCCOCCN)CC4)c(Cl)c3)n2C)c(F)c1F [Example 131, N-[4-[4-[3-[2-(2-aminoethoxy)ethoxy]propanoyl]piperazine-1-carbonyl]-3-chloro-phenyl]-5-(2,3-difluoro-4-methoxy-phenyl)-1-methyl-imidazole-2-carboxamide formate] | 90 nM |
| COc1ccc(-c2cnc(C(=O)Nc3ccc(C(=O)N4CCN(C(=O)C56CC(N)(C5)C6)CC4)c(Cl)c3)n2C)c(F)c1F [Example 132, N-[4-[4-(3-aminobicyclo[1.1.1]pentane-1-carbonyl)piperazine-1-carbonyl]-3-chloro-phenyl]-5-(2,3-difluoro-4-methoxy-phenyl)-1-methyl-imidazole-2-carboxamide formate] | 70 nM |
| COc1ccc(-c2cnc(C(=O)Nc3ccc(C(=O)N4CCN(C(=O)C5CNC(=O)N5)CC4)c(Cl)c3)n2C)c(F)c1F (stereo not shown) [Example 133, N-[3-chloro-4-[4-(2-oxoimidazolidine-4-carbonyl)piperazine-1-carbonyl]phenyl]-5-(2,3-difluoro-4-methoxy-phenyl)-1-methyl-imidazole-2-carboxamide] | 170 nM |
| COc1ccc(-c2cnc(C(=O)Nc3ccc(C(=O)N4CCN(C(=O)CCC#N)CC4)c(Cl)c3)n2C)c(F)c1F [Example 134, N-[3-chloro-4-[4-(3-cyanopropanoyl)piperazine-1-carbonyl]phenyl]-5-(2,3-difluoro-4-methoxy-phenyl)-1-methyl-imidazole-2-carboxamide] | 100 nM |
| COc1ccc(-c2cnc(C(=O)Nc3ccc(C(=O)N4CCN(C(=O)CCCNC(=N)N)CC4)c(Cl)c3)n2C)c(F)c1F [Example 135, N-[3-chloro-4-[4-(4-guanidinobutanoyl)piperazine-1-carbonyl]phenyl]-5-(2,3-difluoro-4-methoxy-phenyl)-1-methyl-imidazole-2-carboxamide formate] | 30 nM |
| Cn1c(-c2ccc(OCF)c(F)c2F)cnc1C(=O)Nc1ccc(C(=O)N2CCN(C(=O)C3[C@H]4CNC[C@@H]34)CC2)c(Cl)c1 (stereo partly drawn) [Example 136, N-[4-[4-[(1R,5S)-3-azabicyclo[3.1.0]hexane-6-carbonyl]piperazine-1-carbonyl]-3-chloro-phenyl]-5-[2,3-difluoro-4-(fluoromethoxy)phenyl]-1-methyl-imidazole-2-carboxamide formate] | 30 nM |
| COc1ccc(-c2cnc(C(=O)Nc3ccc(C(=O)N4CCN(C(=O)[C@H]5C[C@H](N)C5)CC4)c(Cl)c3)n2C)c(F)c1F [Example 137, N-[4-[4-(3-aminocyclobutanecarbonyl)piperazine-1-carbonyl]-3-chloro-phenyl]-5-(2,3-difluoro-4-methoxy-phenyl)-1-methyl-imidazole-2-carboxamide formate] | 40 nM |
